Measured values taken from ChEMBL document CHEMBL5252563, “Structure-activity relationship studies of anti-bunyaviral cap-dependent endonuclease inhibitors” (Bioorg Med Chem Lett, 2023).

How the values were obtained:
Junin virus [1] = assay: Antiviral activity against Junin virus; assay type: functional, organism-based; conditions: Mammarenavirus juninense
[2] = tested on: Mammarenavirus choriomeningitidis; assay: Antiviral activity against Lymphocytic choriomeningitis virus; assay type: functional, organism-based
[3] = Metabolic stability in human liver microsomes; assay type: ADME, Microsome
[4] = Metabolic stability in rat liver microsomes; assay type: ADME, Microsome
[5] = Bioavailability in rat at 2 umol/kg, po or 1 umol/kg, iv administered as cassette dose; assay type: ADME, organism-based; conditions: in vivo, at 2 µmol/kg
[6] = AUC in rat at 1 umol/kg, iv administered as cassette dose; assay type: ADME, organism-based; parameters: dose 1 µmol/kg, route iv; conditions: in vivo
[7] = Elimination half-life in rat at 2 umol/kg, po or 1 umol/kg, iv administered as cassette dose; assay type: ADME, organism-based; conditions: in vivo, dose 2 µmol/kg, read-out: LambdaZ (converted)
[8] = Unbound fraction in rat serum at 2 umol/kg, po or 1 umol/kg, iv administered as cassette dose; assay type: ADME, organism-based; conditions: at 2 µmol/kg
[9] = tested on: Mammarenavirus choriomeningitidis; assay: Potency index, ratio of ribavirin EC50 to test compound EC50 for antiviral activity against Lymphocytic choriomeningitis virus; assay type: functional
Junin virus [10] = assay: Potency index, ratio of ribavirin EC50 to test compound EC50 for antiviral activity against Junin virus; assay type: functional, Mammarenavirus juninense

Row | Compound | EC50 (Junin virus [1]) | EC50 [2] | further results
1 | COCCN1CN(C2c3ccccc3CCc3ccccc32)n2cc(C(=O)O)c(=O)c(O)c2C1=O | 0.005 µM | 0.0053 µM | 
2 | Cc1ccc2c(c1)C(N1CN(C(C)C)C(=O)c3c(O)c(=O)c(C(=O)O)cn31)c1cc(C)ccc1CC2 | 0.176 µM | 0.1 µM | 
3 | CCN(CC)CCN1CN(C2c3ccccc3CCc3ccccc32)n2cc(C(=O)O)c(=O)c(O)c2C1=O | > 1 µM | > 1 µM | 
4 | CC(C)N1CN(Cc2ccccc2-c2ccccc2)n2cc(C(=O)O)c(=O)c(O)c2C1=O | 0.437 µM | 0.499 µM | 
5 | O=C(Nc1nnn[nH]1)c1cn2c(c(O)c1=O)C(=O)N(CC1CC1)CN2C1c2ccccc2CCc2ccccc21 | 0.404 µM | 0.284 µM | 
6 | O=C(NO)c1cn2c(c(O)c1=O)C(=O)N(CC1CC1)CN2C1c2ccccc2CCc2ccccc21 | 0.12 µM | 0.109 µM | 
7 | O=C(O)c1cn2c(c(O)c1=O)C(=O)N(CC1CCCC1)CN2C1c2ccccc2CCc2ccccc21 | 0.025 µM | 0.017 µM | 
8 | Cc1cccc2c1CCc1c(C)cccc1C2N1CN(C(C)C)C(=O)c2c(O)c(=O)c(C(=O)O)cn21 | 0.0031 µM | 0.0017 µM | 
9 | CCN1CN(C2c3ccccc3CCc3ccccc32)n2cc(C(=O)O)c(=O)c(O)c2C1=O | 0.0033 µM | 0.0062 µM | 
10 | CC(C)N1CN(C2c3ccccc3CCc3ccccc32)n2cc(C(=O)O)c(=O)c(O)c2C1=O | 0.0024 µM | 0.0045 µM | Stability [3]: 107%; Stability [4]: 81.8%; bioavailability [5]: 10.1%; AUC [6]: 928 nM·h; half-life [7]: 2 h; fraction unbound [8]: 0.00293; Ratio EC50 [9]: 1000; Ratio EC50 (Junin virus [10]): 1000
11 | CC(C)N1CN(C2c3ccccc3CSc3ccccc32)n2cc(C(=O)O)c(=O)c(O)c2C1=O (stereo not drawn) | 0.0036 µM | 0.008 µM | Ratio EC50 [9]: 1000; Ratio EC50 (Junin virus [10]): 1000
12 | COC(=O)c1cn2c(c(O)c1=O)C(=O)N(CC1CC1)CN2C1c2ccccc2CCc2ccccc21 | 0.271 µM | 0.305 µM | 
13 | O=C(O)c1cn2c(c(O)c1=O)C(=O)N(C1CC1)CN2C1c2ccccc2CCc2ccccc21 | 0.0134 µM | 0.0078 µM | 
14 | O=C(O)c1cn2c(c(O)c1=O)C(=O)N(CC1CC1)CN2C1c2ccccc2CCc2ccccc21 | 0.0058 µM | 0.0041 µM | Stability [3]: 100%; Stability [4]: 95.3%; bioavailability [5]: 8.2%; AUC [6]: 1470 nM·h; half-life [7]: 1.5 h; fraction unbound [8]: 0.0136
15 | CN1CN(C2c3ccccc3CCc3ccccc32)n2cc(C(=O)O)c(=O)c(O)c2C1=O | 0.0092 µM | 0.024 µM | 
16 | O=C(O)c1cn2c(c(O)c1=O)C(=O)N(CC1CCCCC1)CN2C1c2ccccc2CCc2ccccc21 | 0.02 µM | 0.015 µM | 
17 | Cc1ccc2c(c1)CCc1cc(C)ccc1C2N1CN(C(C)C)C(=O)c2c(O)c(=O)c(C(=O)O)cn21 | 0.034 µM | 0.013 µM | 
18 | O=C1c2c(O)c(=O)c(-c3noc(=O)[nH]3)cn2N(C2c3ccccc3CCc3ccccc32)CN1CC1CC1 | 0.189 µM | 0.119 µM | 
19 | O=C1c2c(O)c(=O)c(-c3nnn[nH]3)cn2N(C2c3ccccc3CCc3ccccc32)CN1CC1CC1 | > 1 µM | 0.127 µM | 
20 | CC(C)N1CN(Cc2ccccc2)n2cc(C(=O)O)c(=O)c(O)c2C1=O | > 1 µM | > 1 µM | 
21 | NC(=O)c1ncn([C@@H]2O[C@H](CO)[C@@H](O)[C@H]2O)n1 [RIBAVIRIN] | 2.5 µM | 3.5 µM | 
